Assay results: ChEMBL document CHEMBL3991601, “The target landscape of clinical kinase drugs” (Science, 2017)
Active and inactive are the calls of the source. For most assays here, no stated cut-off is given here; in the data, actives have a measured Kd and inactives only a lower limit.

Tests used:
[1] = biological target: T1, Ras-related protein Rab-10 (Homo sapiens, UniProt P61026)
T1 sequence (P61026 whole entry): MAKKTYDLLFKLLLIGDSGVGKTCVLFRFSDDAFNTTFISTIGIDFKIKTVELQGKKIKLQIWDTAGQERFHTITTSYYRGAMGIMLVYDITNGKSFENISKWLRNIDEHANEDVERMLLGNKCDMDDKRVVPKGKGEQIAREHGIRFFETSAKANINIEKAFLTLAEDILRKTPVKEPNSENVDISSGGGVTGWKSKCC

[2] = biological target: Tyrosine-protein kinase JAK1 (Homo sapiens, UniProt P23458)
Chain of Tyrosine-protein kinase JAK1 (P23458 whole entry): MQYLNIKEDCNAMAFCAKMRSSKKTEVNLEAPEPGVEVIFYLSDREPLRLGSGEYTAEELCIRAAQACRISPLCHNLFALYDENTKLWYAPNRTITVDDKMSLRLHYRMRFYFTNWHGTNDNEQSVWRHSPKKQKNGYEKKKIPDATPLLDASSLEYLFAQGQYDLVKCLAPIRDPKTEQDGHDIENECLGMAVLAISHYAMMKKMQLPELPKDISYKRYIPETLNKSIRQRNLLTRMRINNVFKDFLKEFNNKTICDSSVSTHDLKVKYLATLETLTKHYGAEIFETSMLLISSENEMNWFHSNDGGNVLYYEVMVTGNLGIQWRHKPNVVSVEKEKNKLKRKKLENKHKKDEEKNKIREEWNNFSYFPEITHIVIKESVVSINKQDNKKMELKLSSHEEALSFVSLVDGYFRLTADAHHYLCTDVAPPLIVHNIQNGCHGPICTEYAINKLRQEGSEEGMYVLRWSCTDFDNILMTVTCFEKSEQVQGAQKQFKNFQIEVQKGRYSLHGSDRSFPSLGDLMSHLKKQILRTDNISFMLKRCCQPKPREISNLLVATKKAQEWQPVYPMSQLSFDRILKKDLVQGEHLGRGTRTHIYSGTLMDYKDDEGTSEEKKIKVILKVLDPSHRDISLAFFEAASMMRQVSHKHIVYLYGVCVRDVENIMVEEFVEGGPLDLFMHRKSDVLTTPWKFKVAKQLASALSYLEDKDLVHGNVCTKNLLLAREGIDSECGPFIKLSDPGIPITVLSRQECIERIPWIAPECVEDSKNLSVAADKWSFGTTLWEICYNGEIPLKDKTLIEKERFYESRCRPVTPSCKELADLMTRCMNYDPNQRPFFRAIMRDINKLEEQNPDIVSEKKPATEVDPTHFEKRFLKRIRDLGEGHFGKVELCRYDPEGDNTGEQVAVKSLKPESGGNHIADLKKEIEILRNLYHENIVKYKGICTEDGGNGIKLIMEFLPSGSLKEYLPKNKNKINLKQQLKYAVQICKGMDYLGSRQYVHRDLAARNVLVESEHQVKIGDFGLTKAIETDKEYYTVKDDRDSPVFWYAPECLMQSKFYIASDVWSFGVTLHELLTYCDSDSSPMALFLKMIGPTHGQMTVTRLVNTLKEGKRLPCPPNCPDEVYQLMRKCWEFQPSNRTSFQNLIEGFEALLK

[3] = biological target: T2, Heme oxygenase 2 (Homo sapiens, UniProt P30519)
T2 sequence (P30519 whole entry): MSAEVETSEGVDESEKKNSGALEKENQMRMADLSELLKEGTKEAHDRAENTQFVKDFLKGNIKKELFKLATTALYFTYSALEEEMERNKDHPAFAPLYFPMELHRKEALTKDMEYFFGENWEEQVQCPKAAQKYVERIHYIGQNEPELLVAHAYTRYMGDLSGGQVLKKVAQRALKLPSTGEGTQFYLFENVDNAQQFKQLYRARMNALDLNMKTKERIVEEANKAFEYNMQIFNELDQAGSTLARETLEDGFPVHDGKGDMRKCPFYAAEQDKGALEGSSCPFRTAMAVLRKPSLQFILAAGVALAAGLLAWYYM

[4] = biological target: Ephrin type-A receptor 5 (Homo sapiens, UniProt P54756)
Chain of Ephrin type-A receptor 5 (P54756 whole entry): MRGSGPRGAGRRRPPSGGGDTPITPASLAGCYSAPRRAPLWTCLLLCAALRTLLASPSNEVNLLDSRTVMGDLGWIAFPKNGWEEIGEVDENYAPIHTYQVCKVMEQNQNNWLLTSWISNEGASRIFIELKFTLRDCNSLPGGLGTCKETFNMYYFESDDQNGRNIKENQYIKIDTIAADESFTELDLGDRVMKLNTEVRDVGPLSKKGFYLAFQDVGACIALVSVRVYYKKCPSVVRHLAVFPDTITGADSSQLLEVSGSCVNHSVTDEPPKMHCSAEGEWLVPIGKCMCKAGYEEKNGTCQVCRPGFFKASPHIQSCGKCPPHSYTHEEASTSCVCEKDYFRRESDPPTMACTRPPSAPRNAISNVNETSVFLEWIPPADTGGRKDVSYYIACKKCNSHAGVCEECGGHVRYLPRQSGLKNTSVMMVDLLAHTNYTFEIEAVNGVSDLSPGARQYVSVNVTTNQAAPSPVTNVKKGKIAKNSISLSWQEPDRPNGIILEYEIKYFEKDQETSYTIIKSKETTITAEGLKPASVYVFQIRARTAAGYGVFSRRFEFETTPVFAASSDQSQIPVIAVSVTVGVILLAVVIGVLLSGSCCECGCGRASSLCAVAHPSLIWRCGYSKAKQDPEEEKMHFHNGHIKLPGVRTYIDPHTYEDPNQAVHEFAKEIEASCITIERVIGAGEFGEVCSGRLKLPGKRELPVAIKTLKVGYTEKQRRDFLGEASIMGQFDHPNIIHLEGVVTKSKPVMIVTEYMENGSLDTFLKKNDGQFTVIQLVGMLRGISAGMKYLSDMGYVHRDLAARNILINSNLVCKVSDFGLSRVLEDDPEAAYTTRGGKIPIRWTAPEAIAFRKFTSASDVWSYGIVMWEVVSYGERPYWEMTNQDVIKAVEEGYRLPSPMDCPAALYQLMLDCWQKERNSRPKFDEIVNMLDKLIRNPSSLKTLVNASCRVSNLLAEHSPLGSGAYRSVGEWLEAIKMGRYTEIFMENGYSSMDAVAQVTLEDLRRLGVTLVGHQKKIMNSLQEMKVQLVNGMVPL

[5] = biological target: TGF-beta receptor type-2 (Homo sapiens, UniProt P37173)
Chain of TGF-beta receptor type-2 (P37173 whole entry): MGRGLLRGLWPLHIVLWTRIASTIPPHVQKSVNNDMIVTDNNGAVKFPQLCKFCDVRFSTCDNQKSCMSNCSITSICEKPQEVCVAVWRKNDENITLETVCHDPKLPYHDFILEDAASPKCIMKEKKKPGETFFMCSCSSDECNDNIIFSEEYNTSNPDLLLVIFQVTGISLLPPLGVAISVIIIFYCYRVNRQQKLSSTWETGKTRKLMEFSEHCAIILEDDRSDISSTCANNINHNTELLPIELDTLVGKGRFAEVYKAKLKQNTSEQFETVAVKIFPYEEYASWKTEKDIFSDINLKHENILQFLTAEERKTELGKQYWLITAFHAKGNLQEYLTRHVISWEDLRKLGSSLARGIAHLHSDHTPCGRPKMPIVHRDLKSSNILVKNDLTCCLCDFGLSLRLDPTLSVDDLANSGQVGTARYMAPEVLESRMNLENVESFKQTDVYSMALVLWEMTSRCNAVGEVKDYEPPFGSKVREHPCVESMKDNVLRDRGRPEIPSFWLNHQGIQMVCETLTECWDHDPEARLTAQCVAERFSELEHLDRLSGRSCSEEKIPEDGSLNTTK

[6] = biological target: Cyclin-dependent kinase 6 (Homo sapiens, UniProt Q00534)
Chain of Cyclin-dependent kinase 6 (Q00534 whole entry): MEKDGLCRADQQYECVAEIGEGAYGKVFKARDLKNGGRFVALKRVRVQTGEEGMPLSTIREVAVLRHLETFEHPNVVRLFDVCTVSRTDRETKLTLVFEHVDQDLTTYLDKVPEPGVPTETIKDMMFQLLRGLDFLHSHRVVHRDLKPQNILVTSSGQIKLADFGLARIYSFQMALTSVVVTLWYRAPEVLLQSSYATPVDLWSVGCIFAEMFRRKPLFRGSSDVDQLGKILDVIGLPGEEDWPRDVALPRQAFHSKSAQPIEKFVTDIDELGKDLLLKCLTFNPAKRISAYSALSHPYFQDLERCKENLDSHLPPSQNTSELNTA

[7] = biological target: T3, Serine/threonine-protein kinase Nek9 (Homo sapiens, UniProt Q8TD19)
T3 sequence (Q8TD19 whole entry): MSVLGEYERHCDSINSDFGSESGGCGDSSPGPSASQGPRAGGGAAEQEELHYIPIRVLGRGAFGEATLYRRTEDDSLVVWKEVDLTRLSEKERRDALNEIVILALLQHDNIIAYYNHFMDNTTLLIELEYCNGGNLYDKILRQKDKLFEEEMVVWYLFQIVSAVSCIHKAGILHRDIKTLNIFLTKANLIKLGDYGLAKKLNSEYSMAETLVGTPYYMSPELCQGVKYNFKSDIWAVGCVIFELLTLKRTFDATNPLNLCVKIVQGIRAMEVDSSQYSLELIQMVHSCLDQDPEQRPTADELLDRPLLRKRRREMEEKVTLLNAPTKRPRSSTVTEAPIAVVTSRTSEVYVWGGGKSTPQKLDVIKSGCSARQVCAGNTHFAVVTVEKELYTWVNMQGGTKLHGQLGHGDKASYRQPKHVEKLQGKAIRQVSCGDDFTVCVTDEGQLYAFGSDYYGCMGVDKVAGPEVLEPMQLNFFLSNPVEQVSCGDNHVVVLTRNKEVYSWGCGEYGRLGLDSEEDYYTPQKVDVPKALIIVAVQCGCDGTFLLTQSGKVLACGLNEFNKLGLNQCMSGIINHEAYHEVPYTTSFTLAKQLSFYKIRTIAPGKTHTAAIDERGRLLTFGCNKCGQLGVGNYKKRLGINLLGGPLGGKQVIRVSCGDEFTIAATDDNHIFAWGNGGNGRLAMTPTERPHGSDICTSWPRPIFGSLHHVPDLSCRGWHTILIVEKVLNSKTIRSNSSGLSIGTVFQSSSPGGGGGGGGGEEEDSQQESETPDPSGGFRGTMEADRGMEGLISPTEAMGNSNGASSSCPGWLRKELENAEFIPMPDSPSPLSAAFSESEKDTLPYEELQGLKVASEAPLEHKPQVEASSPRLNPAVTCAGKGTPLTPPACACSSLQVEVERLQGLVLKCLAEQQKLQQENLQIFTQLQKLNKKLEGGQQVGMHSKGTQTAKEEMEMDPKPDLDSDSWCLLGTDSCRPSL

[8] = biological target: T4, ADP/ATP translocase 3 (Homo sapiens, UniProt P12236)
T4 sequence (P12236 whole entry): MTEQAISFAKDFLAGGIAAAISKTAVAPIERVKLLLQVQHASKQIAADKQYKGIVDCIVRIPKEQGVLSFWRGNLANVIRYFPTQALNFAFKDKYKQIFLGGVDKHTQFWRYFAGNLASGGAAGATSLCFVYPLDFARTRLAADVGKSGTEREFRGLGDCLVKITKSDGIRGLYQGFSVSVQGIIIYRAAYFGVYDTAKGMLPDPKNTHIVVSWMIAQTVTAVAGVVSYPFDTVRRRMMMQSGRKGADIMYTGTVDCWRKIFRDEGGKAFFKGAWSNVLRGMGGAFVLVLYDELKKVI

[9] = biological target: T5, Serine/threonine-protein kinase D2 (Homo sapiens, UniProt Q9BZL6)
T5 sequence (Q9BZL6 whole entry): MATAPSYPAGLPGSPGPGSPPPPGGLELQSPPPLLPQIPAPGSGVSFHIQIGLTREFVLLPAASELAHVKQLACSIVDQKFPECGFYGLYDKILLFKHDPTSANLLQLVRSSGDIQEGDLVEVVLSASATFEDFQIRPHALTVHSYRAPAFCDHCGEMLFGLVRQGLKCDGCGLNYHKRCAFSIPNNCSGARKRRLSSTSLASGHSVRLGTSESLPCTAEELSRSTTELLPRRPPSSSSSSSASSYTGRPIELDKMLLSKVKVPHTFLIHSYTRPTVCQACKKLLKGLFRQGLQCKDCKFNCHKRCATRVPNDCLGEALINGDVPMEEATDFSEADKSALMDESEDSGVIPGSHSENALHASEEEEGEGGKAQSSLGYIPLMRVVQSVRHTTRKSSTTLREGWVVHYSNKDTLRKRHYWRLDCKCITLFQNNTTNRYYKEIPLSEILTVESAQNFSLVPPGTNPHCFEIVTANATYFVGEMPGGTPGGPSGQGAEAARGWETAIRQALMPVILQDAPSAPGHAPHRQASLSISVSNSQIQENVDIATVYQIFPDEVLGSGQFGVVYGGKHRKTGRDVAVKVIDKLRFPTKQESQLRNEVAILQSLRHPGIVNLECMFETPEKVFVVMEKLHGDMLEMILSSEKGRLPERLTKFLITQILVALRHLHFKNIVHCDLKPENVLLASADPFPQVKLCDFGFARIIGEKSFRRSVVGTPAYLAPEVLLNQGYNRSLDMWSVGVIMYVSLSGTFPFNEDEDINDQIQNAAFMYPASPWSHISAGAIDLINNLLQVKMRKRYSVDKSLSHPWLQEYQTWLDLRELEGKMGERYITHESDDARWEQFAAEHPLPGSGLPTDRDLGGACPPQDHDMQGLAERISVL

[10] = biological target: Serine/threonine-protein kinase SIK2 (Homo sapiens, UniProt Q9H0K1)
Chain of Serine/threonine-protein kinase SIK2 (Q9H0K1 whole entry): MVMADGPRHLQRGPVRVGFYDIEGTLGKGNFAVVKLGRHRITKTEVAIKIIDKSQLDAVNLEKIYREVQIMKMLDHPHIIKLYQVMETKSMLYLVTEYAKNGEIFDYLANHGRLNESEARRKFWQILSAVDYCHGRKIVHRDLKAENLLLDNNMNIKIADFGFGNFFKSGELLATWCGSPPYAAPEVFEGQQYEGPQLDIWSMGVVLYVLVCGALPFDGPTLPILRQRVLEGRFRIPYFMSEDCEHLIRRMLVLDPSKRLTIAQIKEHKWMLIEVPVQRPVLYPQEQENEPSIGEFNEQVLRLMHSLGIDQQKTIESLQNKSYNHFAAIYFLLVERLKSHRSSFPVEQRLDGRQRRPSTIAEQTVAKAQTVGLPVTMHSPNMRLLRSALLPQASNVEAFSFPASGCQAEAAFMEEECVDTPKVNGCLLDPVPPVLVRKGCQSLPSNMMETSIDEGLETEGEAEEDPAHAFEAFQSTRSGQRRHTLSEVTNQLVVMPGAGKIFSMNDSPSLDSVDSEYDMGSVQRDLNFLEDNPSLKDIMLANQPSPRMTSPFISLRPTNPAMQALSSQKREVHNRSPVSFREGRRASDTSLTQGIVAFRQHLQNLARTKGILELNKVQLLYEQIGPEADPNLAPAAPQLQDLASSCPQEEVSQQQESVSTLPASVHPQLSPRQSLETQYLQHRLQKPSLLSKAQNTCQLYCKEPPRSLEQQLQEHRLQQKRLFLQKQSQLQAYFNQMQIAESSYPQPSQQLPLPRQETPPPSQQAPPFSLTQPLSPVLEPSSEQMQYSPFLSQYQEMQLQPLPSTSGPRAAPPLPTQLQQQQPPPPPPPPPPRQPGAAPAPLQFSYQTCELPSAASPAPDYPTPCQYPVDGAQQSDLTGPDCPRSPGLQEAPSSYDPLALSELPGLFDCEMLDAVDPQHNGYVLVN

Measured: Kd

CCN(CCCOc1ccc2c(Nc3cc(CC(=O)Nc4cccc(F)c4)n[nH]3)ncnc2c1)CCOP(=O)(O)O [BARASERTIB]
inactive: [1] > 30 µM | [2] > 30 µM | [3] > 30 µM | [4] > 30 µM | [5] > 30 µM | [6] > 30 µM | [7] > 30 µM | [8] > 30 µM | [9] > 30 µM

COc1cc2c(N3CCN(C(=O)Nc4ccc(OC(C)C)cc4)CC3)ncnc2cc1OCCCN1CCCCC1 [TANDUTINIB]
inactive: [1] > 30 µM | [6] > 30 µM | [8] > 30 µM

COc1cc2c(Oc3ccc4[nH]c(C)cc4c3F)ncnc2cc1OCCCN1CCCC1 [CEDIRANIB]
inactive: [1] > 30 µM | [3] > 30 µM | [6] > 30 µM | [8] > 30 µM

Cn1cnc2c(F)c(Nc3ccc(Br)cc3Cl)c(C(=O)NOCCO)cc21 [SELUMETINIB]
inactive: [1] > 30 µM | [3] > 30 µM | [6] > 30 µM | [8] > 30 µM

CC1(COc2ccc3c(c2)ncn3-c2ccc3cccc(N4CCC(N)CC4)c3n2)COC1 [CRENOLANIB]
inactive: [1] > 30 µM | [2] > 30 µM | [3] > 30 µM | [4] > 30 µM | [5] > 30 µM | [6] > 30 µM | [7] > 30 µM | [8] > 30 µM | [9] > 30 µM

CN(C)C/C=C/C(=O)Nc1cc2c(Nc3ccc(F)c(Cl)c3)ncnc2cc1O[C@H]1CCOC1 [AFATINIB]
inactive: [1] > 30 µM | [3] > 30 µM | [6] > 30 µM | [8] > 30 µM

CN(c1ncccc1CNc1nc(Nc2ccc3c(c2)CC(=O)N3)ncc1C(F)(F)F)S(C)(=O)=O [PF-00562271]
inactive: [1] > 30 µM | [2] > 30 µM | [3] > 30 µM | [4] > 30 µM | [5] > 30 µM | [6] > 30 µM | [7] > 30 µM | [8] > 30 µM

CC(C)(O)CC(=O)NCCn1ccc2ncnc(Nc3ccc(Oc4cccc(C(F)(F)F)c4)c(Cl)c3)c21 [TAK-285]
inactive: [1] > 30 µM | [2] > 30 µM | [3] > 30 µM | [4] > 30 µM | [5] > 30 µM | [6] > 30 µM | [7] > 30 µM | [8] > 30 µM | [10] > 30 µM

CC1(C)CNc2cc(NC(=O)c3cccnc3NCc3ccncc3)ccc21 [MOTESANIB]
inactive: [1] > 30 µM | [3] > 30 µM | [6] > 30 µM | [8] > 30 µM

S=C(NCc1ccc2c(c1)OCO2)N1CCN(c2ncnc3c2oc2ccccc23)CC1 [AMUVATINIB]
inactive: [1] > 30 µM | [2] > 30 µM | [3] > 30 µM | [4] > 30 µM | [6] > 30 µM | [7] > 30 µM | [8] > 30 µM | [9] > 30 µM | [10] > 30 µM

C[C@@]1(C(=O)Nc2ccc(F)nc2)CCCN1c1nc(Nc2cc(C3CC3)n[nH]2)c2cccn2n1 [BMS-754807]
inactive: [1] > 30 µM | [3] > 30 µM | [6] > 30 µM | [8] > 30 µM

C=CC(=O)Nc1cc(Nc2nccc(-c3cn(C)c4ccccc34)n2)c(OC)cc1N(C)CCN(C)C [OSIMERTINIB]
inactive: [1] > 30 µM | [2] > 30 µM | [3] > 30 µM | [4] > 30 µM | [6] > 30 µM | [7] > 30 µM | [8] > 30 µM | [9] > 30 µM | [10] > 30 µM

NC[C@@](O)(c1ccc(Cl)cc1)c1ccc(-c2cn[nH]c2)cc1 [AT-13148]
inactive: [1] > 30 µM | [2] > 30 µM | [3] > 30 µM | [6] > 30 µM | [7] > 30 µM | [9] > 30 µM | [10] > 30 µM

C[C@]1(O)C[C@@H](c2nc(-c3ccc4ccc(-c5ccccc5)nc4c3)c3c(N)nccn32)C1 [LINSITINIB]
inactive: [1] > 30 µM | [2] > 30 µM | [3] > 30 µM | [4] > 30 µM | [5] > 30 µM | [6] > 30 µM | [7] > 30 µM | [8] > 30 µM | [10] > 30 µM
